Values of other authors in patent US10654860B2, “Tricyclic rho kinase inhibitors” (BRISTOL-MYERS SQUIBB COMPANY, priority 2016, dated 2020).
Read-outs that look alike come from different tables or passages of the source.

Experiments:
[1] = tested on: spontaneously hypertensive rat, renal hypertensive rat and deoxycortisone acetate salt hypertensive rat models; settings: cited from earlier work
[2] = tested on: congestive heart failure in Dahl salt-sensitive rats; settings: cited from earlier work
neointimal formation = settings: rats, balloon injury model; cited from earlier work
[3] = tested on: IL-1 beta-induced coronary stenosis; settings: long term treatment, porcine model; cited from earlier work
rat stroke model = settings: cited from earlier work

SMILES	blood pressure ([1]; control rats)	blood pressure ([1]; three rat models of hypertension)	ventricular hypertrophy, fibrosis and function [2]	neointimal formation (neointimal formation)	coronary constrictive remodeling [3]	coronary stenosis [3]	infarct size (rat stroke model)	neurologic deficit (rat stroke model)
C[C@@H](N)[C@H]1CC[C@H](C(=O)Nc2ccncc2)CC1 [Example Y-27632, Y-27632]	only a minor effect	significantly decrease	improve	inhibited	–	–	–	–
O=S(=O)(c1cccc2cnccc12)N1CCCNCC1 [fasudil]	–	–	–	–	promote a regression	progressively reduce	reduce	reduce
